Results published in patent US12053451B2, “Arginase inhibitors and their therapeutic applications” (OncoArendi Therapeutics S.A., priority 2016, dated 2024).
Structures can show the parent of a compound that is named as a salt.

Columns and labels:
[1] = biological target: T1, recombinant human arginase 2 (Homo sapiens, UniProt P78540); assay: Human arginase activity assay (urea measurement), arginase 2; assay type: biochemical; conditions: for selected examples class estimated from % of inhibition at 1 μM and 100 μM, * = most potent diastereoisomer or mixture of diastereoisomers, read-out: Activity Class (ARG II)
T1 construct: made in house; host or cells: CHO
T1 sequence (P78540 23-354): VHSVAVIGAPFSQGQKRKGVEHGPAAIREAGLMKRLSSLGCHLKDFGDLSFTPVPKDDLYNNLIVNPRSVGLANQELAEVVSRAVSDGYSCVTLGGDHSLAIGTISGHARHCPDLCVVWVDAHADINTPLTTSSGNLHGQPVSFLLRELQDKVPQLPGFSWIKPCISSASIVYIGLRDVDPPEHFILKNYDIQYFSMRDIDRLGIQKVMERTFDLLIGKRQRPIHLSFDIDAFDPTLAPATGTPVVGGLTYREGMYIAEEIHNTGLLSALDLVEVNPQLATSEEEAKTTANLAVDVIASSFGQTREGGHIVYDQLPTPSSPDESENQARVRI
Method: (§1) Human Arginase Activity Assay
An enzymatic assay with recombinant human arginases 1 (Biolegend, Cat. No. 552502) and 2 (homemade in eukaryotic expression system of CHO, purified by FPLC) was used in order to assess inhibitory activity of the compounds. The assay was run in the 96-well plate format, each reaction in the total volume of 100 uL. The assay is based on urea measurement, which is a product of L-arginine enzymatic degradation. (Baggio et al. J Pharmacol. Exp. Ther. 1999, 290, 1409-1416). The color product is developed by adding a mixture of reagent A (4 mM oPA in 50 mM boric acid in 1M sulfuric acid, 0.03% Brij-35) and reagent B (4 mM NED in 50 mM boric acid in 1M sulfuric acid, 0.03% Brij-35) in equal proportions. The absorbance for each well was measured at 530 nm.
(§2) Briefly, to each well of a 96-well microtiter plate 40 μL of enzyme in the reaction assay buffer (pH 7.4, 100 mM sodium phosphate buffer, 130 mM NaCl, 1 mg/mL albumin), 50 μL of the test compound solution and 10 μL of enzyme substrate solution (L-arginine hydrochloride, natural pH 5.6, final concentration 20 mM and a cofactor—manganese chloride, final concentration 150 μM) was added. For positive control, only the enzyme and substrate were used, the negative controls contained substrate solution with assay buffer. After incubating the microtiter plate at 37° C. for 60 min 150 μL of mixed reagents A and B was added to each well to stop the reaction. Absorbance was measured (λ=530 nm) 20 minutes later, after color development. The urea production in the absence of any compound was considered the maximum arginase activity. The absorbance in the absence of arginase (background) was subtracted from all the values. The normalized OD was used to generate a concentration-response curve by plotting the percent of inhibition against log[concentration] of the compound and using regression analysis (GraphPad Prism 7.0) to compute the IC50 values.
(§3) For selected examples the activity class for ARG2 was estimated based on % of inhibition for 1 μM and 100 μM concentration of tested compounds.

[2] = biological target: T2, recombinant human arginase 1 (Homo sapiens, UniProt P05089); assay: Human arginase activity assay (urea measurement), arginase 1; assay type: biochemical; conditions: recombinant human arginase 1, pH 7.4, 37° C., 60 min; * = value for the most potent diastereoisomer or the mixture of diastereoisomers; read-out: Activity Class (ARG I)
T2 construct: purchased Biolegend 552502
T2 sequence (P05089 1-322): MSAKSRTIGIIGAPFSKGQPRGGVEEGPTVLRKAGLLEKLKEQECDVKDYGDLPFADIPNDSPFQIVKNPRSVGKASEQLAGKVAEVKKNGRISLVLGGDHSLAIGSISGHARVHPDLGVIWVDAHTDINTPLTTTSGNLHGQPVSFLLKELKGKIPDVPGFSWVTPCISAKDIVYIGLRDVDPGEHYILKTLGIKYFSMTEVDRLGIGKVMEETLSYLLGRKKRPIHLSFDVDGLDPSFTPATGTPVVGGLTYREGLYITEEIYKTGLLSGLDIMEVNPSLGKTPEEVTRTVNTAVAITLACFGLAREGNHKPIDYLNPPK
Method: as §1
The assay was run in the 96-well plate format, each reaction in the total volume of 100 uL. The assay is based on urea measurement, which is a product of L-arginine enzymatic degradation. […] The color product is developed by adding a mixture of reagent A (4 mM oPA in 50 mM boric acid in 1M sulfuric acid, 0.03% Brij-35) and reagent B (4 mM NED in 50 mM boric acid in 1M sulfuric acid, 0.03% Brij-35) in equal proportions. The absorbance for each well was measured at 530 nm.
as §2, with “For” for “Briefly, to each well of a 96-well microtiter plate 40 μL of enzyme in the reaction assay buffer (pH 7.4, 100 mM sodium phosphate buffer, 130 mM NaCl, 1 mg/mL albumin), 50 μL of the test compound solution and 10 μL of enzyme substrate solution (L-arginine hydrochloride, natural pH 5.6, final concentration 20 mM and a cofactor—manganese chloride, final concentration 150 μM) was added. For”

[3] = biological target: T3, intracellular arginase in macrophages isolated from murine bone marrow (BMDM) (Mus musculus, UniProt Q61176); assay: Cell-based assay: intracellular arginase in bone marrow derived macrophages (BMDM), urea level; parameters: species or system Balb/c mice; conditions: murine BMDM with M-CSF and IL-4, urea measured 24 hours after compound; * = most potent diastereoisomer or mixture of diastereoisomers; read-out: Activity Class (BMDM)
T3 construct: endogenous in cells; host or cells: primary bone marrow derived macrophages from Balb/c mice, M-CSF and IL-4 treated
T3 sequence (Q61176 1-323): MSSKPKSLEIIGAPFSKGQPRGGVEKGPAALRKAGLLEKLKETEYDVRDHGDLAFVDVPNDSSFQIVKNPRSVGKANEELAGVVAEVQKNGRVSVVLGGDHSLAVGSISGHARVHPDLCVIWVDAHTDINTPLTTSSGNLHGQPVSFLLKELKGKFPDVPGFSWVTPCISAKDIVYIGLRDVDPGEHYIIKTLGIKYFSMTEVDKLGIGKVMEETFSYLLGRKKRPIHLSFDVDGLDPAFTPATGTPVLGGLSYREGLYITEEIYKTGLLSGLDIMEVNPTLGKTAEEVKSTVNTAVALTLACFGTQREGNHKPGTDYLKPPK
Method: Efficacy of Selected Examples Towards Intracellular Arginase in Macrophages Isolated from Murine Bone Marrow—Bone Marrow Derived Macrophages (BMDM)
Materials & Methods: The assay was performed according to modified literature protocol modification (Pineda-Torra I et al., Methods Mol Biol. 2015; 1339:101-9. Mia S et al. Scand J Immunol. 2014 May; 79(5):305-14). The femurs and tibias were isolated from Balb/c mice. Bones were cleaned from all attached tissues by using sterile swab without affecting the bone structure. Bones were sterilized by immersion in 70% ethanol for 5 min and then rinsed in PBS. The sides of the bones were cut off and flush with cold sterile PBS by using 26-G needle S into a 50 mL sterile tube with a cell strainer (Falcon™, Cat. No. U00149), until bone cavity appeared white. Then the cells were centrifuged (5 min at 500×G, 4° C.), washed twice with PBS and counted. Cells were plated in Petri dish in density of 1×10^6/mL and cultured in DMEM (Gibco, Cat. No. 31331-029) with 10% FBS, 1% pen-strep and 50 ng/mL M-CSF (PeproTech, Cat. No. 315-02), (37° C., 5% CO2). After five days cells were subcultured into P96 plate (BD, Cat. No. 353072) in density of 64 000 cells/well in medium supplemented with 50 ng/mL M-CSF and 20 ng/mL IL-4 (Biomibo Cat. No. 214-1). One day later exemplary compounds (dissolved in PBS) were added in several different concentrations and 24 hours later the level of urea was measured in each well (Jung D et al., Clin Chem. 1975, 21(8):1136-40). The concentration of urea in the absence of any compound was considered as the maximum. The absorbance of cell culture media (background) was subtracted from all the values.
as §3

Row | IC50 [1] | IC50 [2] | IC50 [3] | Compound
1 | > 100 µM | > 100 µM |  | N[C@@]1(C(=O)O)C[C@H](CCB(O)O)CC[C@@H]1O (racemic) [Example 15, rac-(1S,2S,5R)-1-Amino-5-(2-boronoethyl)-2-hydroxycyclohexane-1-carboxylic acid hydrochloride]
2 | 10 to 100 µM | 10 to 100 µM |  | NC1(C(=O)O)C[C@H](CCB(O)O)CC[C@@H]1O (mixture of isomers) [Example 16, rac-(2S,5R)-1-Amino-5-(2-boronoethyl)-2-hydroxycyclohexane-1-carboxylic acid hydrochloride]
3 | 1 to 10 µM | 1 to 10 µM |  | CN(C)C[C@@H]1CC[C@@H](CCB(O)O)C[C@@]1(N)C(=O)O (racemic) [Example 19, rac-(1S,2S,5R)-1-amino-5-(2-boronoethyl)-2-((dimethylamino)methyl)cyclohexane-1-carboxylic acid dihydrochloride]
4 |  | 0.1 to 1 µM | 0.1 to 1 µM | CC(C)N(C)C[C@@H]1CC[C@@H](CCB(O)O)C[C@]1(N)C(=O)O (racemic) [Example 32, rac-(1R,2S,5R)-1-amino-5-(2-boronoethyl)-2-((isopropyl(methyl)amino)methyl)cyclohexanecarboxylic acid]
5 |  | 0.001 to 0.1 µM | 0.1 to 1 µM | CC(C)(C)NC[C@@H]1CC[C@@H](CCB(O)O)C[C@]1(N)C(=O)O (racemic) [Example 33, rac-(1R,2S,5R)-1-amino-5-(2-boronoethyl)-2-((tert-butylamino)methyl)cyclohexanecarboxylic acid dihydrochloride]
6 |  | 0.001 to 0.1 µM | 0.1 to 1 µM | N[C@]1(C(=O)O)C[C@H](CCB(O)O)CC[C@H]1CN1C2CCC1CC2 (racemic) [Example 34, rac-(1R,2S,5R)-2-(7-azabicyclo[2.2.1]heptan-7-ylmethyl)-1-amino-5-(2-boronoethyl)cyclohexanecarboxylic acid dihydrochloride]
7 | 0.1 to 1 µM | > 100 µM |  | N[C@]1(C(=O)O)C[C@H](CCB(O)O)CC[C@H]1CNCC(F)(F)F (racemic) [Example 36, rac-(1R,2S,5R)-1-amino-5-(2-boronoethyl)-2-(((2,2,2-trifluoroethyl)amino)methyl)cyclohexanecarboxylic acid dihydrochloride]
8 | 1 to 10 µM | 1 to 10 µM |  | COc1ccc(N(C)C[C@@H]2CC[C@@H](CCB(O)O)C[C@]2(N)C(=O)O)cc1 (racemic) [Example 37, rac-(1R,2S,5R)-1-amino-5-(2-boronoethyl)-2-(((4-methoxyphenyl)(methyl)amino)methyl)cyclohexanecarboxylic acid dihydrochloride]
9 | 1 to 10 µM | 1 to 10 µM |  | CN(C[C@@H]1CC[C@@H](CCB(O)O)C[C@]1(N)C(=O)O)c1ccccc1 (racemic) [Example 40, rac-(1R,2S,5R)-1-amino-5-(2-boronoethyl)-2-((methyl(phenyl)amino)methyl)cyclohexanecarboxylic acid dihydrochloride]
10 | 1 to 10 µM | 1 to 10 µM |  | CN1C[C@@H](CCB(O)O)C[C@](N)(C(=O)O)C1 (racemic) [Example 59, rac-(3R,5S)-3-amino-5-(2-boronoethyl)-1-methylpiperidine-3-carboxylic acid]
11 | 0.001 to 0.1 µM | 0.1 to 1 µM |  | CN(C)CCC1CC[C@@H](CCB(O)O)CC1(N)C(=O)O (single isomer, unassigned) [Example 47, dihydrochloride]
12 | 10 to 100 µM | 10 to 100 µM |  | NC1(C(=O)O)CC(CCB(O)O)CCC1(O)Cc1ccc(Cl)cc1 (single isomer, unassigned) [Example 52, 1-amino-5-(2-boronoethyl)-2-(4-chlorobenzyl)-2-hydroxycyclohexanecarboxylic acid hydrochloride]
13 | > 100 µM | > 100 µM |  | NC1(C(=O)O)CNC(CCB(O)O)C1 (centres unmarked) [Example 9, 3-Amino-5-(2-boronoethyl)pyrrolidine-3-carboxylic acid dihydrochloride]
14 | > 100 µM | > 100 µM |  | NC1(C(=O)O)CCCCC(CCB(O)O)C1 (centres unmarked) [Example 12, 1-Amino-3-(2-boronoethyl)cycloheptane-1-carboxylic acid hydrochloride]
15 | 1 to 10 µM | 0.1 to 1 µM |  | CN(Cc1ccccc1)CC1CCC(CCB(O)O)CC1(N)C(=O)O (centres unmarked) [Example 21, 1-Amino-2-((benzyl(methyl)amino)methyl)-5-(2-boronoethyl)cyclohexane-1-carboxylic acid dihydrochloride]
16 | 1 to 10 µM | 0.1 to 1 µM |  | CC1=CCC(CCB(O)O)CC1(N)C(=O)O (centres unmarked) [Example 51, 1-amino-5-(2-boronoethyl)-2-methylcyclohex-2-enecarboxylic acid hydrochloride]
